Test results taken from patent US9150566B2, “2-(1,2,3-triazol-2-yl)benzamide and 3-(1,2,3-triazol-2-YL)picolinamide derivatives as orexin receptor antagonists” (ACTELION PHARMACEUTICALS LTD., priority 2011, dated 2015).
Where two headings read alike, the source gives them in different places.

Legend:
human orexin-1 receptor = human orexin-1 receptor (Homo sapiens (Human), UniProt O43613); assay: In vitro intracellular calcium measurements (FLIPR), antagonistic activity on orexin-1 receptor; assay type: cell-based; details: read-out: IC50 OX1
Summary of the method: (§1)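 Recombinant CHO lines bearing human OX1 or OX2 receptors received test antagonist 120 min before agonist addition.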

human orexin-2 receptor = human orexin-2 receptor (Homo sapiens (Human), UniProt O43614); assay: In vitro intracellular calcium measurements (FLIPR), antagonistic activity on orexin-2 receptor; assay type: cell-based; details: read-out: IC50 OX2
Summary of the method: as §1

CYP3A4 = CYP3A4 (Homo sapiens (Human), UniProt P08684); assay: CYP3A4 inhibition assay (human liver microsomes, testosterone 6β-hydroxylation); details: read-out: CYP3A4 IC50, 40 μM testosterone
[1] = CHO cells expressing human orexin-1 receptor, FLIPR, 3 nM orexin-A agonist, 120 min antagonist incubation, geometric mean if determined several times
[2] = CHO cells expressing human orexin-2 receptor, FLIPR, 3 nM orexin-A agonist, 120 min antagonist incubation, geometric mean if determined several times

CYP3A4, sequence (P08684 whole entry): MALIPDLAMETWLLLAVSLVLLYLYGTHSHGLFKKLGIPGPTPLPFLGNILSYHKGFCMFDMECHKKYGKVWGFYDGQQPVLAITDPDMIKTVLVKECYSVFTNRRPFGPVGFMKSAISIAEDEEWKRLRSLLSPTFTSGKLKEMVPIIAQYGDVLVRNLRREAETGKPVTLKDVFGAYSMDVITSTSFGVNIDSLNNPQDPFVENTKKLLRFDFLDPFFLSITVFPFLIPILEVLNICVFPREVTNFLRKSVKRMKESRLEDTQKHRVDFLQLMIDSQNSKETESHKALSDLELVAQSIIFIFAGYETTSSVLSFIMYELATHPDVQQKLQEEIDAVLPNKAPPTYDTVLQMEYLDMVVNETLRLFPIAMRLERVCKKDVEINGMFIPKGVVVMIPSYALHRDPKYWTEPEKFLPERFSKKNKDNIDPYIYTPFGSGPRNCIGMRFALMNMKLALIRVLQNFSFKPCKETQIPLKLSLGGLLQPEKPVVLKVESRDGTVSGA
human orexin-2 receptor, sequence (O43614 whole entry): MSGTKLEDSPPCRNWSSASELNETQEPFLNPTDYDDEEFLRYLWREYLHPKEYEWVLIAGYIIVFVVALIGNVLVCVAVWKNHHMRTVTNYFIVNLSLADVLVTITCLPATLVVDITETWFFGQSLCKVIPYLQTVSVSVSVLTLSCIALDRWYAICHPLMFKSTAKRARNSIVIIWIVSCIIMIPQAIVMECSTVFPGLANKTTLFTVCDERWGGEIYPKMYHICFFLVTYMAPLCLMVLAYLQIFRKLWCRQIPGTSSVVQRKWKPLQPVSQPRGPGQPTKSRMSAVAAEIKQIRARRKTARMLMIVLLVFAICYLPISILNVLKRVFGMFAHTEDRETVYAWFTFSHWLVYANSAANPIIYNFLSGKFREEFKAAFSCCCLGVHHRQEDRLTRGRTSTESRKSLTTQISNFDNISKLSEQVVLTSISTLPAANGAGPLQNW
human orexin-1 receptor, sequence (O43613 whole entry): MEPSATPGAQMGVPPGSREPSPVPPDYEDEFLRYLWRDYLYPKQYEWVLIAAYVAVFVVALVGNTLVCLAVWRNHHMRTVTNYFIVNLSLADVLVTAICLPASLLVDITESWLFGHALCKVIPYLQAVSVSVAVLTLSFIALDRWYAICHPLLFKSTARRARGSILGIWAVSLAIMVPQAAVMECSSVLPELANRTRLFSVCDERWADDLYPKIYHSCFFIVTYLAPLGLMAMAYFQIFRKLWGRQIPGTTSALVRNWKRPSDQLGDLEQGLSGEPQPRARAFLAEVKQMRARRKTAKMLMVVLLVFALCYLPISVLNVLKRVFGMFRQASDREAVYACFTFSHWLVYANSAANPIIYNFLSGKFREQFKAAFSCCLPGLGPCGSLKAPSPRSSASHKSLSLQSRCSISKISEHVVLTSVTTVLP

| SMILES | IC50 (human orexin-1 receptor; [1]) [nM] | IC50 (human orexin-2 receptor; [2]) [nM] | IC50 (CYP3A4) [nM] | IC50 (human orexin-1 receptor) [nM] | IC50 (human orexin-2 receptor) [nM] |
| --- | --- | --- | --- | --- | --- |
| COc1ccc(C(=O)N2CCOC[C@H]2Cc2cc(-n3nccn3)ccc2F)c(-n2nccn2)c1 [Example 95, [(R)-3-(2-Fluoro-5-[1,2,3]triazol-2-yl-benzyl)-morpholin-4-yl]-(4-methoxy-2-[1,2,3]triazol-2-yl-phenyl)-methanone] | 11 | 1200 | 49000 |  |  |
| COc1ccc(C[C@@H]2COCCN2C(=O)c2ccccc2-n2nccn2)cc1-c1nccs1 [Example 8, [(R)-3-(4-Methoxy-3-thiazol-2-yl-benzyl)-morpholin-4-yl]-(2-[1,2,3]triazol-2-yl-phenyl)-methanone] | 1 | 335 | 3200 |  |  |
| O=C(c1ccccc1-n1nccn1)N1CCCC[C@H]1Cc1cccc(-n2nccn2)c1 [Ref. 3] | 1 | 12 | 6100 |  |  |
| C[C@@H]1CN(C(=O)c2ccc(Cl)cc2-n2nccn2)[C@H](Cc2cccc(-c3ncccn3)c2)CO1 [Example 114, (4-Chloro-2-[1,2,3]triazol-2-yl-phenyl)-[(2R,5R)-2-methyl-5-(3-pyrimidin-2-yl-benzyl)-morpholin-4-yl]-methanone] | 1 | 83 | 35000 |  |  |
| Cc1ccc(C(=O)N2CCOC[C@H]2Cc2ccc(C)c(-n3nccn3)c2)c(-n2nccn2)c1 [Example 67, [(R)-3-(4-Methyl-3-[1,2,3]triazol-2-yl-benzyl)-morpholin-4-yl]-(4-methyl-2-[1,2,3]triazol-2-yl-phenyl)-methanone] |  |  | 25000 | 2 | 274 |
| Cc1ccc(-n2nccn2)c(C(=O)N2CCOC[C@H]2Cc2cc(-n3nccn3)ccc2F)c1F [Example 132, (2-Fluoro-3-methyl-6-[1,2,3]triazol-2-yl-phenyl)-[(R)-3-(2-fluoro-5-[1,2,3]triazol-2-yl-benzyl)-morpholin-4-yl]-methanone] | 8 | 1170 | 19000 |  |  |
| Cc1ccc(-n2nccn2)c(C(=O)N2CCOC[C@H]2Cc2cc(-c3ncon3)ccc2F)c1 [Example 174, [(R)-3-(2-Fluoro-5-[1,2,4]oxadiazol-3-yl-benzyl)-morpholin-4-yl]-(5-methyl-2-[1,2,3]triazol-2-yl-phenyl)-methanone] | 8 | 642 | 50000 |  |  |
| O=C(c1cccc(Cl)c1-n1nccn1)N1CCOC[C@H]1Cc1cc(-c2ncccn2)ccc1F [Example 161, (3-Chloro-2-[1,2,3]triazol-2-yl-phenyl)-[(R)-3-(2-fluoro-5-pyrimidin-2-yl-benzyl)-morpholin-4-yl]-methanone] | 16 | 655 | 33000 |  |  |
| COc1ccc(C[C@@H]2COCCN2C(=O)c2ccccc2-n2nccn2)cc1-c1ncco1 [Example 9, [(R)-3-(4-Methoxy-3-oxazol-2-yl-benzyl)-morpholin-4-yl]-(2-[1,2,3]triazol-2-yl-phenyl)-methanone] | 2 | 468 | 8400 |  |  |
| COc1ccc(C[C@@H]2COCCN2C(=O)c2ccccc2-n2nccn2)cc1-c1cnccn1 [Example 6] | 12 | 1940 | 26000 |  |  |
| O=C(c1cc(Cl)ccc1-n1nccn1)N1CCOC[C@H]1Cc1cc(-c2ncon2)ccc1F [Example 176, (5-Chloro-2-[1,2,3]triazol-2-yl-phenyl)-[(R)-3-(2-fluoro-5-[1,2,4]oxadiazol-3-yl-benzyl)-morpholin-4-yl]-methanone] | 11 | 240 | 22000 |  |  |
| Cc1ccc(-n2nccn2)c(C(=O)N2CCCC[C@H]2Cc2cccc(-n3nccn3)c2)c1 [Ref. 4] | 0.3 | 2 | 7700 |  |  |

Now from value to molecule, other results behind:

| IC50 (human orexin-1 receptor; [1]) [nM] | IC50 (human orexin-2 receptor; [2]) [nM] | IC50 (CYP3A4) [nM] | SMILES | IC50 (human orexin-1 receptor) [nM] | IC50 (human orexin-2 receptor) [nM] |
| --- | --- | --- | --- | --- | --- |
| 14 | 1300 | 20000 | Cc1ccc(C(=O)N2C[C@@H](C)OC[C@H]2Cc2cc(-c3cccnn3)ccc2F)c(-n2nccn2)c1 [Example 165, [(2R,5R)-5-(2-Fluoro-5-pyridazin-3-yl-benzyl)-2-methyl-morpholin-4-yl]-(4-methyl-2-[1,2,3]triazol-2-yl-phenyl)-methanone] |  |  |
| 34 | 1510 | 22000 | O=C(c1ccccc1-n1nccn1)N1CCOC[C@H]1Cc1cc(F)cc(-n2nccn2)c1 [Example 145, [(R)-3-(3-Fluoro-5-[1,2,3]triazol-2-yl-benzyl)-morpholin-4-yl]-(2-[1,2,3]triazol-2-yl-phenyl)-methanone] |  |  |
| 12 | 188 | 26000 | O=C(c1cc(Cl)ccc1-n1nccn1)N1CCOC[C@H]1Cc1cc(-n2nccn2)ccc1F [Example 129, (5-Chloro-2-[1,2,3]triazol-2-yl-phenyl)-[(R)-3-(2-fluoro-5-[1,2,3]triazol-2-yl-benzyl)-morpholin-4-yl]-methanone] |  |  |
| 5 | 1230 | > 50000 | COc1cc(C(=O)N2CCOC[C@H]2Cc2cccc(-n3nccn3)c2)c(-n2nccn2)cc1OC [Example 34, (4,5-Dimethoxy-2-[1,2,3]triazol-2-yl-phenyl)-[(R)-3-(3-[1,2,3]triazol-2-yl-benzyl)-morpholin-4-yl]-methanone] |  |  |
| 6 | 490 | 17000 | O=C(c1cc(Cl)ccc1-n1nccn1)N1CCOC[C@H]1Cc1cc(-c2ncccn2)ccc1F [Example 159, (5-Chloro-2-[1,2,3]triazol-2-yl-phenyl)-[(R)-3-(2-fluoro-5-pyrimidin-2-yl-benzyl)-morpholin-4-yl]-methanone] |  |  |
| 2 | 146 | 24000 | Cc1ccc(-n2nccn2)c(C(=O)N2C[C@@H](C)OC[C@H]2Cc2cc(-n3nccn3)ccc2F)c1 [Example 115, [(2R,5R)-5-(2-Fluoro-5-[1,2,3]triazol-2-yl-benzyl)-2-methyl-morpholin-4-yl]-(5-methyl-2-[1,2,3]triazol-2-yl-phenyl)-methanone] |  |  |
| 43 | 1630 | > 50000 | Cc1ccc(-n2nccn2)c(C(=O)N2CCOC[C@H]2Cc2cccc(-n3nccn3)c2)n1 [Example 52, (6-Methyl-3-[1,2,3]triazol-2-yl-pyridin-2-yl)-[(R)-3-(3-[1,2,3]triazol-2-yl-benzyl)-morpholin-4-yl]-methanone] |  |  |
| 5 | 246 | 21000 | O=C(c1cc(Cl)ccc1-n1nccn1)N1CCOC[C@H]1Cc1cccc(-c2ncon2)c1 [Example 84, (5-Chloro-2-[1,2,3]triazol-2-yl-phenyl)-[(R)-3-(3-[1,2,4]oxadiazol-3-yl-benzyl)-morpholin-4-yl]-methanone] |  |  |
| 0.7 | 34 | 41000 | COc1ccc(C[C@@H]2COCCN2C(=O)c2ccc(C)cc2-n2nccn2)cc1-c1ncon1 [Example 60, [(R)-3-(4-Methoxy-3-[1,2,4]oxadiazol-3-yl-benzyl)-morpholin-4-yl]-(4-methyl-2-[1,2,3]triazol-2-yl-phenyl)-methanone] |  |  |
| 7 | 983 | 40000 | Cc1cccc(C(=O)N2C[C@@H](C)OC[C@H]2Cc2cccc(-c3ncccn3)c2)c1-n1nccn1 [Example 111, [(2R,5R)-2-Methyl-5-(3-pyrimidin-2-yl-benzyl)-morpholin-4-yl]-(3-methyl-2-[1,2,3]triazol-2-yl-phenyl)-methanone] |  |  |
| 17 | 528 | 22000 | COc1cc(C(=O)N2CCOC[C@H]2Cc2cccc(-n3nccn3)c2)c(-n2nccn2)cc1F [Example 78, (4-Fluoro-5-methoxy-2-[1,2,3]triazol-2-yl-phenyl)-[(R)-3-(3-[1,2,3]triazol-2-yl-benzyl)-morpholin-4-yl]-methanone] |  |  |
| 16 | 992 | 36000 | Cc1ccc(C[C@@H]2COCCN2C(=O)c2ccccc2-n2nccn2)cc1-n1nccn1 [Example 66, [(R)-3-(4-Methyl-3-[1,2,3]triazol-2-yl-benzyl)-morpholin-4-yl]-(2-[1,2,3]triazol-2-yl-phenyl)-methanone] |  |  |
| 34 | 4780 | 6000 | Cc1ccc(-n2nccn2)c(C(=O)N2CCOC[C@H]2Cc2cccc(-n3cncn3)c2)c1 [Example 23, (5-Methyl-2-[1,2,3]triazol-2-yl-phenyl)-[(R)-3-(3-[1,2,4]triazol-1-yl-benzyl)-morpholin-4-yl]-methanone] |  |  |
| 12 | 1090 | 17000 | Cc1ccc(C(=O)N2CCOC[C@H]2Cc2cc(-n3cccn3)ccc2C)c(-n2nccn2)c1 [Example 189, [(R)-3-(2-Methyl-5-pyrazol-1-yl-benzyl)-morpholin-4-yl]-(4-methyl-2-[1,2,3]triazol-2-yl-phenyl)-methanone] |  |  |
| 13 | 447 | 24000 | C[C@@H]1CN(C(=O)c2cccc(Cl)c2-n2nccn2)[C@H](Cc2cc(-c3ncccn3)ccc2F)CO1 [Example 154, (3-Chloro-2-[1,2,3]triazol-2-yl-phenyl)-[(2R,5R)-5-(2-fluoro-5-pyrimidin-2-yl-benzyl)-2-methyl-morpholin-4-yl]-methanone] |  |  |
| 39 | 4440 | 9600 | O=C(c1ccccc1-n1nccn1)N1CCOC[C@H]1Cc1cccc(-c2cccnn2)c1 [Example 48, [(R)-3-(3-Pyridazin-3-yl-benzyl)-morpholin-4-yl]-(2-[1,2,3]triazol-2-yl-phenyl)-methanone] |  |  |
| 34 | 2010 | 5100 | O=C(c1ccccc1-n1nccn1)N1CCOC[C@H]1Cc1cccc(-c2ncco2)c1 [Example 42, [(R)-3-(3-Oxazol-2-yl-benzyl)-morpholin-4-yl]-(2-[1,2,3]triazol-2-yl-phenyl)-methanone] |  |  |
